Measurements published in article PMC6746691 (European Journal of Drug Metabolism and Pharmacokinetics, 2019).

How the values were obtained:
[1] = Vancomycin treatment safety outcomes; assay type: in vivo, hospitalized adults (patients); settings: for Neutropenia: absolute neutrophil counts < 1000/μL
[2] = Vancomycin clinical pharmacokinetics and serum concentrations; settings: for AUC per TDM adjusted dose / AUC per initial dose: NONMEM; for AUC per TDM adjusted dose / t1/2 / AUC per initial dose / Initial vancomycin serum concentration, Peak / Initial vancomycin serum concentration, Trough-2 / Initial vancomycin serum concentration, Trough-1: median [IQR]; for Cl / Ke / Vd / t1/2: at treatment initiation; for Cl / Ke / Vd / Post-dose adjustment trough concentration: mean ± SD, SD; for AUC per initial dose: pre-TDM dose; for Initial vancomycin serum concentration, Peak / Initial vancomycin serum concentration, Trough-2 / Initial vancomycin serum concentration, Trough-1: pre-TDM; for Initial vancomycin serum concentration, Peak: 1–2 h post fourth dose infusion; for Initial vancomycin serum concentration, Trough-2: 30 min before the fifth dose; for Initial vancomycin serum concentration, Trough-1: 30 min before the fourth dose
[3] = test system: suspected/confirmed staphylococcal or other Gram-positive infection; experiment: Clinical effectiveness; assay type: in vivo, hospitalized adults (patients); settings: for Length of hospitalization: median [min–max]
[4] = peak–trough-monitoring group (n = 30)
[5] = trough-only-monitoring group (n = 35)

Question: Which All-cause mortality [1, 4] does the source give for `CN[C@H](CC(C)C)C(=O)N[C@H]1C(=O)N[C@@H](CC(N)=O)C(=O)N[C@H]2C(=O)N[C@H]3C(=O)N[C@H](C(=O)N[C@H](C(=O)O)c4cc(O)cc(O)c4-c4cc3ccc4O)[C@H](O)c3ccc(c(Cl)c3)Oc3cc2cc(c3O[C@@H]2O[C@H](CO)[C@@H](O)[C@H](O)[C@H]2O[C@H]2C[C@](C)(N)[C@H](O)[C@H](C)O2)Oc2ccc(cc2Cl)[C@H]1O` [vancomycin] here?
Answer: The All-cause mortality was 2 (6.7) n (%).

Question: And the Neutropenia [1, 4]?
Answer: The Neutropenia was 1 (3.3) n (%).

Question: And the All-cause mortality [1, 5]?
Answer: Its All-cause mortality is 3 (8.6) n (%).

Question: And the Neutropenia [1, 5]?
Answer: The Neutropenia was 3 (8.6) n (%).

Question: What about the “AUC per TDM adjusted dose” value [2, 4] of the same molecule?
Answer: Its value is 223 [168.82] mg*h/L.

Question: What about the “AUC per TDM adjusted dose” value [2, 5] of the same molecule?
Answer: The value was 270 [156.02] mg*h/L.

Question: And the Cl [2, 4]?
Answer: Its Cl is 4.24 ± 2.20 L/h.

Question: What about the Ke [2, 4] of the same molecule?
Answer: Its Ke is 0.089 ± 0.051 h⁻¹.

Question: And the Vd [2, 4]?
Answer: The Vd was 51.14 ± 9.96 L.

Question: And the t1/2 [2, 4]?
Answer: The t1/2 was 7.23 [9.75] h.

Question: And the Cl [2, 5]?
Answer: Its Cl is 4.15 ± 2.22 L/h.

Question: What about the Ke [2, 5] of the same molecule?
Answer: The Ke was 0.094 ± 0.05 h⁻¹.

Question: What about the Vd [2, 5] of the same molecule?
Answer: The Vd was 48.5 ± 10.7 L.

Question: And the t1/2 [2, 5]?
Answer: Its t1/2 is 8.01 [11.12] h.

Question: And the “Post-dose adjustment trough concentration” value [2, 4]?
Answer: The value was 15.6 ± 3.49 mg/L.

Question: And the “AUC per initial dose” value [2, 4]?
Answer: Its value is 228 [273.01] mg*h/L.

Question: And the “AUC per initial dose” value [2, 5]?
Answer: Its value is 227 [195.6] mg*h/L.

Question: What about the “Initial vancomycin serum concentration, Peak” value [2, 4] of the same molecule?
Answer: Its value is 27.9 [17.8] mg/L.

Question: What about the “Initial vancomycin serum concentration, Peak” value [2, 5] of the same molecule?
Answer: Its value is 25 [10] mg/L.

Question: And the “Initial vancomycin serum concentration, Trough-2” value [2, 4]?
Answer: Its value is 8.9 [15.1] mg/L.

Question: And the “Initial vancomycin serum concentration, Trough-2” value [2, 5]?
Answer: The value was 10.6 [10.5] mg/L.

Question: What about the “Initial vancomycin serum concentration, Trough-1” value [2, 4] of the same molecule?
Answer: The value was 8.4 [12.9] mg/L.

Question: And the “Initial vancomycin serum concentration, Trough-1” value [2, 5]?
Answer: Its value is 9 [8.3] mg/L.

Question: What about the “Post-dose adjustment trough concentration” value [2, 5] of the same molecule?
Answer: Its value is 16.8 ± 3.09 mg/L.

Question: And the Therapeutic failure [3, 4]?
Answer: The Therapeutic failure was 7 (23.3) n (%).

Question: What about the Length of hospitalization [3, 4] of the same molecule?
Answer: Its Length of hospitalization is 15.5 [4–68.9] days.

Question: What about the Therapeutic failure [3, 5] of the same molecule?
Answer: The Therapeutic failure was 18 (51.4) n (%).

Question: What about the Therapeutic cure ([3]; trough-only-monitoring group (n = 35), clinical and/or microbiologic cure, intention-to-treat) of the same molecule?
Answer: Its Therapeutic cure is 17 (48.6) n (%).

Question: What about the Length of hospitalization [3, 5] of the same molecule?
Answer: The Length of hospitalization was 20 [6–117] days.
